Each block holds one molecule with its values, some of them ahead of it. Starred links: 1 amine or outer side, 2 acyl side, 3 side chain; linkers in the order of their positions; H or OH if unused. Positions of bridges follow the written chain, without caps; N, C: chain ends. Non-standard residues stand in square brackets, D forms with d. Residues, ends and D or L forms follow the SMILES beside them. Groups on a side chain read outwards from the residue. *: point of attachment. Ala(1-CH2CO2H-4-piperidyl) = N[C@@H](CC1CCN(CC(=O)O)CC1)C(=O)O; Ala(piperidin-4-yl) = O=C([C@H](CC1CCN([*:3])CC1)N[*:1])[*:2]; DOTA = O=C(O)CN1CCN(CC(=O)O)CCN(CC(=O)*)CCN(CC(=O)O)CC1; Trp(5-F) = N[C@@H](Cc1c[nH]c2ccc(F)cc12)C(=O)O; X1 = C[C@@H](c1ccccc1)[C@H](N[*:1])C(=O)[*:2]; PEG8 = NCCOCCOCCOCCOCCOCCOCCOCCOCCC(=O)O; C16 diacid = O=C(O)CCCCCCCCCCCCCCC(=O)*; Phe(4-F) = N[C@@H](Cc1ccc(F)cc1)C(=O)O; γGlu = O=C(O)[C@H](CCC(=O)[*:2])N[*:1]; 1Nal = N[C@@H](Cc1cccc2ccccc12)C(=O)O; Ala(4-THP) = N[C@@H](CC1CCOCC1)C(=O)O; Val(3-OH) = CC(C)(O)[C@H](N)C(=O)O; 4Pal = N[C@@H](Cc1ccncc1)C(=O)O; Aad = N[C@@H](CCCC(=O)O)C(=O)O; Suc = O=C(CCC(=O)[*:2])[*:1]; Tle = CC(C)(C)[C@H](N)C(=O)O; hLeu = CC(C)CC[C@H](N)C(=O)O; NMeS = CN[C@@H](CO)C(=O)O; αMeS = C[C@](N)(CO)C(=O)O; Nle = CCCC[C@H](N)C(=O)O
Target: T1, human 4lg B7-H3 (Homo sapiens, UniProt Q5ZPR3)
T1 sequence (Q5ZPR3 29-534): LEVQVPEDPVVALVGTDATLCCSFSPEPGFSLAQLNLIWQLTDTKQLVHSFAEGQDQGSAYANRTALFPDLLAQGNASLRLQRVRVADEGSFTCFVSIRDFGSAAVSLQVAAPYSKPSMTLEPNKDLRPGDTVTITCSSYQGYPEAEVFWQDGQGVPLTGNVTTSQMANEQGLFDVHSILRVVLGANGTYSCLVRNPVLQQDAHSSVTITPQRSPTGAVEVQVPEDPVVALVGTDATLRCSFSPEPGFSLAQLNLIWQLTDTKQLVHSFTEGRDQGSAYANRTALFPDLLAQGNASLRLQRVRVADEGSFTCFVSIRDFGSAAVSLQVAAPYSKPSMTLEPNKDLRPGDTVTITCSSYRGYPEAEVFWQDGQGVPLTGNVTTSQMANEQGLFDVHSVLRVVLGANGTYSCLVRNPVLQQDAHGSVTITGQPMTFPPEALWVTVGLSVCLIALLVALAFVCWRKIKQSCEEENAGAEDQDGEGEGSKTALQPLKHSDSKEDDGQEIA
Assay: Affinity determination by surface plasmon resonance (SPR) to 4Ig B7-H3
Conditions: 4Ig B7-H3

[1] = SPR KD—25° C., 25° C. flow cell temperature
[2] = SPR KD—37° C., 37° C. flow cell temperature

Compound: CC(=O)N[C@@H](CCC(C)C)C(=O)N[C@@H](Cc1ccc(O)cc1)C(=O)N[C@H]1CSSC[C@@H](C(=O)N[C@@H](Cc2cccc3ccccc23)C(=O)N[C@@H](Cc2ccccc2)C(=O)N2CCC[C@H]2C(=O)N[C@H](CCCCNC(=O)CN2CCN(CC(=O)O)CCN(CC(=O)O)CCN(CC(=O)O)CC2)C(N)=O)NC(=O)[C@H](Cc2ccc(O)cc2)NC(=O)[C@H](C(C)C)NC(=O)[C@H](CC(=O)O)NC(=O)[C@H](Cc2ccc(O)cc2)NC(=O)[C@H](CCCCN)NC(=O)CNC(=O)[C@H](C(C)(C)C)NC1=O [compound 244, Ac-hLeu-Y-C-Tbg-G-K-Y-D-V-Y-C-1Nal-F-Pro-dLys(DOTA)-CONH2] (Ac-[hLeu]YC[Tle]GKYDVYC[1Nal]FP[dK](DOTA)-NH2; disulfide 3-11)
Kd [1]: < 1 nM

Compound: CC(=O)N[C@@H](CCC(C)C)C(=O)N[C@@H](Cc1ccc(O)cc1)C(=O)N[C@H]1CSSC[C@@H](C(=O)N[C@@H](Cc2c[nH]c3ccc(F)cc23)C(=O)N[C@@H](Cc2ccccc2)C(=O)N[C@H](C(=O)N[C@H](CCCCNC(=O)CN2CCN(CC(=O)O)CCN(CC(=O)O)CCN(CC(=O)O)CC2)C(=O)O)C(C)(C)O)NC(=O)[C@H](Cc2ccc(O)cc2)NC(=O)[C@H](C(C)C)NC(=O)[C@H](CC(=O)O)NC(=O)[C@H](CC2CCOCC2)NC(=O)[C@H](CCCCNC(=O)CC[C@H](NC(=O)CCCCCCCCCCCCCCC(=O)O)C(=O)O)NC(=O)CNC(=O)[C@H](C(C)(C)C)NC1=O [compound 405, Ac-hLeu-Y-C-Tbg-G-K(yE-C16OH)-ThpA-D-V-Y-C-5FW-F-hydroxyVal-dLys(DOTA)-COOH] (Ac-[hLeu]YC[Tle]GK([γGlu-C16 diacid])[Ala(4-THP)]DVYC[Trp(5-F)]F[Val(3-OH)][dK](DOTA)-OH; disulfide 3-11)
Kd [2]: 10 to 100 nM

Compound: CC(=O)N[C@@H](CCC(C)C)C(=O)N[C@@H](Cc1ccc(O)cc1)C(=O)N[C@H]1CSSC[C@@H](C(=O)N[C@@H](Cc2c[nH]c3ccc(F)cc23)C(=O)N[C@@H](Cc2ccccc2)C(=O)N[C@H](C(=O)N[C@H](CCCCNC(=O)CN2CCN(CC(=O)O)CCN(CC(=O)O)CCN(CC(=O)O)CC2)C(N)=O)[C@@H](C)O)NC(=O)[C@H](Cc2ccc(F)cc2)NC(=O)[C@H](C(C)C)NC(=O)[C@H](CC(=O)O)NC(=O)[C@H](Cc2ccc(O)cc2)NC(=O)[C@H](CCCCN)NC(=O)CNC(=O)[C@H](C(C)C)NC1=O [compound 172, Ac-hLeu-Y-C-V-G-K-Y-D-V-4FPhe-C-5FW-F-Thr-dLys(DOTA)-CONH2] (Ac-[hLeu]YCVGKYDV[Phe(4-F)]C[Trp(5-F)]FT[dK](DOTA)-NH2; disulfide 3-11)
Kd [1]: 1 to 10 nM

Compound: CC(C)CC[C@H](NC(=O)CCOCCOCCOCCOCCOCCOCCOCCOCCNC(=O)CN1CCN(CC(=O)O)CCN(CC(=O)O)CCN(CC(=O)O)CC1)C(=O)N[C@@H](Cc1ccc(O)cc1)C(=O)N[C@H]1CSSC[C@@H](C(=O)N[C@@H](Cc2c[nH]c3ccc(F)cc23)C(=O)N[C@@H](Cc2ccccc2)C(=O)N[C@H](C(N)=O)C(C)(C)O)NC(=O)[C@H](Cc2ccc(O)cc2)NC(=O)[C@H](C(C)C)NC(=O)[C@H](CC(=O)O)NC(=O)[C@H](CC2CCOCC2)NC(=O)[C@H](CCCCN)NC(=O)CNC(=O)[C@H](C(C)(C)C)NC1=O [Cpd #391, DOTA-PEG8-hLeu-Y-C-Tbg-G-K-ThpA-D-V-Y-C-5FW-F-hydroxyVal-CONH2] ({DOTA-PEG8}-[hLeu]YC[Tle]GK[Ala(4-THP)]DVYC[Trp(5-F)]F[Val(3-OH)]-NH2; disulfide 3-11)
Kd [2]: 1 to 10 nM

Compound: CC(=O)N[C@@H](CCC(C)C)C(=O)N[C@@H](Cc1ccc(O)cc1)C(=O)N[C@H]1CSSC[C@@H](C(=O)N[C@@H](Cc2c[nH]c3ccccc23)C(=O)N[C@@H](Cc2ccccc2)C(=O)N2CCC[C@H]2C(=O)N[C@@H](CCCCNC(=O)CN2CCN(CC(=O)O)CCN(CC(=O)O)CCN(CC(=O)O)CC2)C(N)=O)NC(=O)[C@H](Cc2ccc(O)cc2)NC(=O)[C@H](C(C)C)NC(=O)[C@H](CC(=O)O)NC(=O)[C@H](Cc2ccc(O)cc2)NC(=O)[C@H](CCCCN)NC(=O)CNC(=O)[C@H](C(C)C)NC1=O [compound 141, Ac-hLeu-Y-C-V-G-K-Y-D-V-Y-C-W-F-Pro-dLys(DOTA)-CONH2] (Ac-[hLeu]YCVGKYDVYCWFPK(DOTA)-NH2; disulfide 3-11)
Kd [1]: 1 to 10 nM

Compound: CC(=O)N[C@@H](CCC(C)C)C(=O)N[C@@H](Cc1ccc(O)cc1)C(=O)N[C@H]1CSSC[C@@H](C(=O)N[C@@H](Cc2c[nH]c3ccc(F)cc23)C(=O)N[C@H](C(=O)N[C@H](C(=O)N[C@H](CCCCNC(=O)[C@H](CCCC(=O)O)NC(=O)CN2CCN(CC(=O)O)CCN(CC(=O)O)CCN(CC(=O)O)CC2)C(=O)O)C(C)(C)O)[C@@H](C)c2ccccc2)NC(=O)[C@H](Cc2ccc(O)cc2)NC(=O)[C@H](C(C)C)NC(=O)[C@H](CC(=O)O)NC(=O)[C@H](CC2CCOCC2)NC(=O)[C@H](CC2CCN(CC(=O)O)CC2)NC(=O)CNC(=O)[C@H](C(C)(C)C)NC1=O [compound 525, Ac-hLeu-Y-C-Tbg-G-Pip(CH2COOH)Ala-ThpA-D-V-Y-C-5FW-[(2S, 3S)beta-Me-Phe]-hydroxyVal-dLys(hGlu-DOTA)-COOH] (Ac-[hLeu]YC[Tle]G[Ala(1-CH2CO2H-4-piperidyl)][Ala(4-THP)]DVYC[Trp(5-F)][X1][Val(3-OH)][dK]([Aad-DOTA])-OH; disulfide 3-11)
Kd [2]: < 1 nM

More lines, now with the values ahead:

Kd [1]: 10 to 100 nM
Compound: CCCC[C@H](NC(C)=O)C(=O)N[C@@H](Cc1ccc(O)cc1)C(=O)N[C@H]1CSSC[C@@H](C(=O)N[C@@H](Cc2c[nH]c3ccccc23)C(=O)N[C@@H](Cc2ccccc2)C(=O)N[C@H](C(=O)N[C@H](CCCCNC(=O)CN2CCN(CC(=O)O)CCN(CC(=O)O)CCN(CC(=O)O)CC2)C(=O)O)[C@@H](C)O)NC(=O)[C@H](Cc2ccc(O)cc2)NC(=O)[C@H](C(C)C)NC(=O)[C@H](CC(=O)O)NC(=O)[C@H](CCCC(=O)O)NC(=O)[C@H](CCCCN)NC(=O)CNC(=O)[C@H](C(C)C)NC1=O [compound 116, Ac-Nle-Y-C-V-G-K-HomoGlu-D-V-Y-C-W-F-Thr-dLys(DOTA)-COOH] (Ac-[Nle]YCVGK[Aad]DVYCWFT[dK](DOTA)-OH; disulfide 3-11)

Kd [1]: 1 to 10 nM
Compound: CC(=O)N[C@@H](CCC(C)C)C(=O)N[C@@H](Cc1ccc(O)cc1)C(=O)N[C@H]1CSSC[C@@H](C(=O)N[C@@H](Cc2c[nH]c3ccc(F)cc23)C(=O)N[C@@H](Cc2ccccc2)C(=O)N[C@@](C)(CO)C(=O)N[C@H](CCCCNC(=O)CN2CCN(CC(=O)O)CCN(CC(=O)O)CCN(CC(=O)O)CC2)C(N)=O)NC(=O)[C@H](Cc2ccc(O)cc2)NC(=O)[C@H](C(C)C)NC(=O)[C@H](CC(=O)O)NC(=O)[C@H](Cc2ccc(O)cc2)NC(=O)[C@H](CCCCN)NC(=O)CNC(=O)[C@H](C(C)C)NC1=O [compound 147, Ac-hLeu-Y-C-V-G-K-Y-D-V-Y-C-5FW-F-aMeSer-dLys(DOTA)-CONH2] (Ac-[hLeu]YCVGKYDVYC[Trp(5-F)]F[αMeS][dK](DOTA)-NH2; disulfide 3-11)

Kd [1]: 10 to 100 nM
Compound: CC(=O)N[C@@H](CCC(C)C)C(=O)N[C@@H](Cc1ccc(O)cc1)C(=O)N[C@H]1CSSC[C@@H](C(=O)N[C@@H](Cc2cccc3ccccc23)C(=O)N[C@@H](Cc2ccccc2)C(=O)N(C)[C@@H](CO)C(=O)N[C@H](CCCCNC(=O)CN2CCN(CC(=O)O)CCN(CC(=O)O)CCN(CC(=O)O)CC2)C(N)=O)NC(=O)[C@H](CC2CCOCC2)NC(=O)[C@H](C(C)C)NC(=O)[C@H](CC(=O)O)NC(=O)[C@H](Cc2ccncc2)NC(=O)[C@H](CCCCN)NC(=O)CNC(=O)[C@H](C(C)(C)C)NC1=O [compound 223, Ac-hLeu-Y-C-Tbg-G-K-4PyA-D-V-ThpA-C-1Nal-F-NMeSer-dLys(DOTA)-CONH2] (Ac-[hLeu]YC[Tle]GK[4Pal]DV[Ala(4-THP)]C[1Nal]F[NMeS][dK](DOTA)-NH2; disulfide 3-11)

Kd [2]: < 1 nM
Compound: CC(=O)N[C@@H](CCC(C)C)C(=O)N[C@@H](Cc1ccc(O)cc1)C(=O)N[C@H]1CSSC[C@@H](C(=O)N[C@@H](Cc2c[nH]c3ccc(F)cc23)C(=O)N[C@@H](Cc2ccccc2)C(=O)N[C@H](C(=O)N[C@H](CCC(=O)O)C(N)=O)C(C)(C)O)NC(=O)[C@H](Cc2ccc(O)cc2)NC(=O)[C@H](C(C)C)NC(=O)[C@H](CC(=O)O)NC(=O)[C@H](CC2CCN(C(=O)CN3CCN(CC(=O)O)CCN(CC(=O)O)CCN(CC(=O)O)CC3)CC2)NC(=O)[C@H](CC2CCNCC2)NC(=O)CNC(=O)[C@H](C(C)(C)C)NC1=O [compound 447, Ac-hLeu-Y-C-Tbg-G-PipAla-Pip(DOTA)Ala-D-V-Y-C-5FW-F-hydroxyVal-dGlu-CONH2] (Ac-[hLeu]YC[Tle]G[Ala(piperidin-4-yl)][Ala(piperidin-4-yl)](DOTA)DVYC[Trp(5-F)]F[Val(3-OH)][dE]-NH2; disulfide 3-11)

Kd [2]: 1 to 10 nM
Compound: CC(C)CC[C@H](NC(=O)CCC(=O)O)C(=O)N[C@@H](Cc1ccc(O)cc1)C(=O)N[C@H]1CSSC[C@@H](C(=O)N[C@@H](Cc2c[nH]c3ccc(F)cc23)C(=O)N[C@@H](Cc2ccccc2)C(=O)N[C@H](C(=O)N[C@H](CCCCNC(=O)CN2CCN(CC(=O)O)CCN(CC(=O)O)CCN(CC(=O)O)CC2)C(=O)O)C(C)(C)O)NC(=O)[C@H](Cc2ccc(O)cc2)NC(=O)[C@H](C(C)C)NC(=O)[C@H](CC(=O)O)NC(=O)[C@H](CC2CCOCC2)NC(=O)[C@H](CC2CCNCC2)NC(=O)CNC(=O)[C@H](C(C)(C)C)NC1=O [compound 451, C4diacid-hLeu-Y-C-Tbg-G-PipAla-ThpA-D-V-Y-C-5FW-F-hydroxyVal-dLys(DOTA)-COOH] (Suc-[hLeu]YC[Tle]G[Ala(piperidin-4-yl)][Ala(4-THP)]DVYC[Trp(5-F)]F[Val(3-OH)][dK](DOTA)-OH; disulfide 3-11)

— patent US20250296959A1, “B7-H3 TARGETING PEPTIDES AND CONSTRUCTS THEREOF” (Mariana Oncology Inc., priority 2024, published 2025)
